Data taken from US12195427B2, “MASP-2 inhibitors and methods of use” (priority 2018, dated 2025).

What was measured:
[1] = biological target: MASP-2 CCP2-SP (Homo sapiens (Human), UniProt O00187); experiment: MASP-2 co-crystallization, X-ray crystallography and structure analysis (H-bonds, van der Waals contacts); set-up: van der Waals contact distance, MASP-2 HIS 483 atom CD2 / van der Waals contact distance, MASP-2 HIS 483 atom NE2 / van der Waals contact distance, SER 654 C to compound atom / van der Waals contact distance, SER 654 O to compound atom / van der Waals contact distance, TRP 655 C to compound atom / van der Waals contact distance, MASP-2 GLY 528 atom CA / van der Waals contact distance TRP 655 atom CZ3 / van der Waals contact distance TRP 655 atom N / van der Waals contact distance TRP 655 atom CE3 / van der Waals contact distance GLY 656 atom C / van der Waals contact distance GLY 656 atom CA / van der Waals contact distance GLY 656 atom O / van der Waals contact distance, MASP-2 TYR 607 atom CD1 / van der Waals contact distance, MASP-2 PRO 606 atom O / d(C3,CA1) / d(CA1,N1)2 / d(H4,O1) / d(H4,O2) / d(O1,O2) / d(CA1,O2) / d(CA6,O1) / d(CA6,O2) / d(CA1,C5) / d(O2,H3) / d(N2,C2) / d(CA5,N2) / d(N2,C4) / d(N2,C6) / d(N2,CA3) / d(N2,O3) / d(O4,H2): unit not given beside the values;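 for Ligand-pharmacophore element distance, pharmacophore element C2: distance from averaged pharmacophore element to bound ligand; missing value means element absent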;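 for Ligand-pharmacophore element distance, pharmacophore element C3: distance from averaged pharmacophore element to bound ligand; missing value means element absent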;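 for Ligand-pharmacophore element distance, pharmacophore element C4: distance from averaged pharmacophore element to bound ligand; missing value means element absent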;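 for Ligand-pharmacophore element distance, pharmacophore element C5: distance from averaged pharmacophore element to bound ligand; missing value means element absent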
Procedure, shortened: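 E. coli-expressed CCP2-SP (±6His); apo crystals soaked 1–2× in inhibitor-containing crystallization solution; optional 20% glycerol cryoprotection, LN2 flash-cool; synchrotron data at 1.0 wavelength; MR using 1Q3X portions, partial refinement; single pose analysed when several seen.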

[2] = tested on: Lectin Pathway; experiment: Lectin Pathway Activation Assay in Human Serum (mannan-coated ELISA, C3c detection); assay type: biochemical; settings: 1% human serum
Method: Microtiter ELISA plate was coated with mannan from Saccharomyces cerevisiae (Sigma-Aldrich, M7504) for overnight at 4° C. in coating buffer [15 mM Na2CO3, 35 mM NaHCO3].

[3] = Table A5-1 pharmacophore: distance between elements, S2/S1 region
[4] = Table A5-2 pharmacophore distance, S3/S4 region
[5] = Table A7-1, between pharmacophore elements of the bound compound
[6] = Table A8-6, nearest protein atom in cell to the left

Sequence of MASP-2 CCP2-SP (O00187 445-686): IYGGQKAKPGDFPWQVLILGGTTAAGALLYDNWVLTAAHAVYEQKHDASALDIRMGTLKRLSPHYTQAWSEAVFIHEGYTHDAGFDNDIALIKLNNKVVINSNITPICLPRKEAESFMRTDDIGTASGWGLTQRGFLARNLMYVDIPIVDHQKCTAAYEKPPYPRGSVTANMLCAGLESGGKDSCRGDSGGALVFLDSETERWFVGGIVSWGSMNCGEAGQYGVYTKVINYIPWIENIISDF
Sequence of MASP-2 CCP2-SP (O00187 364-432 partner): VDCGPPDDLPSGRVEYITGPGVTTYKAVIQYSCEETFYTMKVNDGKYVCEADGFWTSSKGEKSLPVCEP

## C[C@H](NC(=O)[C@H]1C[C@@H](c2ccccc2)CCN1)C(=O)NCc1ccc(C(=N)N)cc1 (stereo in doubt) [compound 1065]
[1]; Table A1 (H-Bonds), ASP 627 OD1
  H-bond distance to MASP-2 ASP 627 atom OD1: 3.14
[1]; Table A1 (H-Bonds), ASP 627 OD2
  H-bond distance to MASP-2 ASP 627 atom OD2: 3.08
[1]; Table A1 (H-Bonds), GLY 656 N
  H-bond distance to MASP-2 GLY 656 atom N: 3.31
[1]; Table A1 (H-Bonds), SER 654 O
  H-bond distance to MASP-2 SER 654 atom O: 2.92
[1]; Table A2-1
  van der Waals contact distance, MASP-2 HIS 483 atom CD2: 3.67
[1]; Table A2-9, ARG 630, AA atoms CG, CZ
  van der Waals contact distance, MASP-2 amino acid atom to compound atom: 3.55
[1]; Table A2-11
  van der Waals contact distance, SER 654 C to compound atom: 3.78
  van der Waals contact distance, VAL 653 CG1 to compound atom: 3.6
[1]; Table A2-12
  van der Waals contact distance, TRP 655 CA to compound atom: 3.46
[1]; Table A2-13, MASP-2 TRP 655 CE3, compound atom in line below
  van der Waals contact distance TRP 655 atom CE3: 3.6
[1]; Table A4-1, element C2
  Ligand-pharmacophore element distance, pharmacophore element C2: 0.11
[1]; Table A4-1, element C3
  Ligand-pharmacophore element distance, pharmacophore element C3: 0
[1]; Table A4-1, element C4
  Ligand-pharmacophore element distance, pharmacophore element C4: 0
[1]; Table A4-1, element C5
  Ligand-pharmacophore element distance, pharmacophore element C5: 0
[1]; Table A4-1, element C6
  Ligand-pharmacophore element distance, pharmacophore element C6: 0
[1]; Table A4-1, element C7
  Ligand-pharmacophore element distance, pharmacophore element C7: 0
[1]; Table A4-1, element CA1
  Ligand-pharmacophore element distance, pharmacophore element CA1: 0.88
[1]; Table A4-1, element CA2
  Ligand-pharmacophore element distance, pharmacophore element CA2: 0.1
[1]; Table A4-1, element CA3
  Ligand-pharmacophore element distance, pharmacophore element CA3: 0
[1]; Table A4-1, element CA4
  Ligand-pharmacophore element distance, pharmacophore element CA4: 0
[1]; Table A4-1, element CA5
  Ligand-pharmacophore element distance, pharmacophore element CA5: 0
[1]; Table A4-1, element CA6
  Ligand-pharmacophore element distance, pharmacophore element CA6: 0
[1]; [3]
  d(CA1,N1): 3.47
  d(CA1,O1): 4.32
  d(CA1,O2): 4.20
  d(H4,O1): 6.39
  d(H4,O2): 5.35
  d(O1,O2): 3.30
[1]; [4]
  d(N2,C2): 1.40
  d(N2,CA2): 5.75
  d(O2,H3): 4.40
  d(O2,N2): 2.83
[1]; Table A6-1 pharmacophore angle
  a(CA1, O1, O2): 110.77
  a(O1, O2, H4): 148.95
[1]; Table A6-1 pharmacophore angle, all compounds with protonatable center N1 except Methyl-amino-pyridine
  A(N1, CA1, O1) a): 165.45
[1]; Table A6-2 pharmacophore angle
  a(O1, O2, H3): 145.76
  a(O1, O2, N2): 144.81
  a(O2, N2, C2): 124.85
  a(O2, N2, CA2): 154.55
[1]; [5]
  Pharmacophore torsion angle a(H4, O1, O2, H3): 44.38
  Pharmacophore torsion angle a(H4, O1, O2, N2): 129.83
  Pharmacophore torsion angle a(N1, CA1, O2, H4): −89.34
  Pharmacophore torsion angle a(O1, H4, O2, CA1): −21.94
  Pharmacophore torsion angle a(O1, O2, N2, C2): 124.96
[1]; Table A7-2, between pharmacophore elements of the bound compound
  Pharmacophore torsion angle a(O1, O2, N2, CA2): 129.88
[1]; Table A8-6, 6th residue column, nearest protein atom in cell to the left
  Pharmacophore protein distance to MET_658 (first MET_658 column): 3.34
[1]; Table A8-6, 9th residue column, nearest protein atom in cell to the left
  Pharmacophore protein distance to MET_658 (second MET_658 column): 3.79
[1]; [6]
  Pharmacophore protein distance to GLY_528: 3.56
  Pharmacophore protein distance to PHE_529: 2.70
  Pharmacophore protein distance to PRO_608: 3.75
  Pharmacophore protein distance to SER_611: 2.57
[1]; Table A8-6, pharmacophore elements C6, CA3, O3, H1, nearest protein atom in cell to the left
  Pharmacophore protein distance to TRP_655: 3.87
[2]
  IC50: < 50 nM
